Data set [1] deals with HL60 and U937 AML cells on HUVECs. The experiment in a line: Leukemic cell adhesion to and co-culture with HUVECs. The data set is classed as cell-based, human. How it is done:
To assess leukemic cell adhesion, 1×10^5 GFP+HL60 or U937 cells in X-vivo/5% FBS were added per well. The percentage of GFP++adherent cells was quantified by fluorescent microscopy. To compare the resistance of vascular-adherent to non-adherent leukemic cells in co-culture, leukemic cells were seeded on either IL-1β-activated or non-activated HUVECs, with addition of CA4P. After 48 hours, GFP++leukemic cells were removed from the wells by trypsinization and quantified by fluorescence microscopy and flow cytometry. […] The number of adherent cells is expressed as a percentage of total leukemic cells and representative of three independent experiments performed in triplicate SEM (*p<0.05 as compared to CA4P-untreated control).
Survival of GFP+U937 (E) and HL60 (F) leukemic cells co-cultured with HUVECs is expressed as a percentage of total cells. Adherent (i.e. attached to IL-1β activated HUVECs) and non-adherent leukemic cells (i.e. cultured with non-activated HUVECs) are depicted. Results are representative of three independent experiments performed in triplicate±SEM (*p<0.05).

Data set [2] relates to human umbilical cord derived (CB) CD34+ cells. The experiment in a line: Cord blood CD34+ cell viability and colony formation. The class given is cell-based. How it is done: Cord blood CD34+ cells were isolated by magnetic procedure and cultured with recombinant human SCF (50 ng/ml, Peprotech) and CA4P for 48 h. Annexin/PI staining was then performed. CD34+ cells were also cultured in methylcellulose supplemented with cytokines and CA4P (Stem cell technologies, Vancouver, Canada) for 14 days. Colonies were scored. […] As such, CA4P used as single agent can selectively target circulating and or tissue-resident hematopoietic neoplasms without incurring significant hematological toxicity.

Data set [3] relates to KG1a leukemic cells. The data set is described as follows: Cell cycle analysis with propidium iodide. The data set is classed as cell-based, human. The note with it: 5 and 10 nM, 48 hours.
Data set [4] deals with leukemic cells. The data set is described as follows: Comet assay for DNA damage. The note with it: after CA4P treatment. The data set is classed as cell-based, human. How it is done: DNA damage in CA4P-incubated leukemic cells was assessed by comet assay. The concept behind this assay is based upon the ability of denatured, cleaved DNA fragments to migrate out of the cell under the influence of an electric field, whereas undamaged DNA migrates more slowly and remains within the confines of the nucleus. Evaluation of the DNA “comet” tail shape and migration pattern allows for assessment of DNA damage. Results were expressed as the percentage of cells with a comet tail in 100 randomly selected, non-overlapping cells visualized by standard light microscopy. […] Results of three experiments in duplicate are expressed as the mean of the number of cells with a comet tail (%)±SEM (*p<0.05 as compared with CA4P-untreated cells; n=3).

In data set [5] the test system is leukemic cells. The experiment in a line: Release of mitochondrial membrane proteins, immunofluorescence. The data set is classed as cell-based, human. The conditions noted are these: after CA4P exposure, data not shown. The source says:
Mitochondrial damage may result in the release of pro-apoptotic mitochondrial membrane proteins (MMPs) such as cytochrome c, SMAC/diablo and ARTS. […] Cytochrome c and ARTS were detected using mAb clone 6H2.B4 (1:100, BD Pharmingen) and polyclonal-antibody A3720 (1:50, Sigma), both followed by AlexaFluor 488 conjugated secondary antibody (1:200, Molecular Probes) and analyzed by confocal microscopy.

Data set [6] relates to KG1a leukemic cells. The experiment in a line: Release of nuclear HMG1 protein into supernatant (necrosis marker), Western blot. The class given is cell-based, human. The conditions noted are these: 24 hours, CA4P 20 mM, staurosporine 100 μM as printed. How it is done:
Nonetheless, to rule out the possibility that CA4P may trigger necrotic cell death in subsets of the leukemic cells, the release of nuclear HMG1 protein into the culture supernatant, which has been described as a sensitive and highly specific marker for necrotic cell death (Scaffidi, et al. 2002. Nature 418, 191-5), was quantified. For detection of HMG1 protein, KG1a leukemic cells (1×106 in 2 ml X-vivo/5% FBS) were incubated with 100 μM staurosporine to induce apoptosis, freeze-thawed three times to induce necrosis, or treated with 20 mM CA4P for 24 hours. Cells were spun down, pelleted and the supernatant subjected to Western blot for HMG135.

For the next data set, the system named is VCAM-1. The data set is described as follows: IL-1β-induced VCAM-1 expression in HUVECs, flow cytometry. The class given is cell-based, human. The conditions noted are these: 1 to 5 nM. How it is done:
Human umbilical vein endothelial cells (HUVECs) were activated with IL-1β (5 ng/ml) for 24 hours with CA4P added at concentrations from 0 to 5 nM. VCAM-1 expression was determined by flow cytometry with phytoerythrin-conjugated anti-CD106 (VCAM-1) mAb.
On the technique in general: A flow cytometer gives signals particle by particle.

The test system of another data set is GFP+HL60 cells. The data set is described as follows: Systemic in vivo leukemia model, GFP+HL60. Details: species or system NOD-SCID mice. How it is done:
NOD-SCID mice were intravenously inoculated with 1×10^7 GFP+HL60 cells. The HL60 cells were labeled with green fluorescent protein (GFP) by a lentiviral construct, and inoculated systemically through tail vein injection. Three days after inoculation, mice were divided into 2 groups of five mice. One group was treated every other day with PBS (control) and the second group received 25 mg/kg CA4P every other day. Each experiment was done three times. At day 30 after the start of the experiment, two mice from each group were killed, and their organs (spleen, liver and lung), peripheral blood and marrow of surgically removed femurs were collected, and analyzed for the presence of human leukemic cells by flow cytometry. Single cell suspension was stained using phytoerythrin-labeled anti-human CD45 mAb (Pharmingen), and the percentage of double positive human CD45-PE and GFP cells was determined flow cytometer. The extent of GFP+HL60 cell infiltration was assessed by fluorescence microscopy. In a second set of experiments, GFP+U937 cells were used instead of HL60 cells, and the animals sacrificed after 30 days.
In the untreated control group, the mice survived for 32-40 days only and succumbed to systemic spread of leukemia. […] This increase in survival was accompanied by a decrease in circulating leukemic cells observed 30 days after leukemic cell injection, as assessed by flow cytometry determination of double positive cells for human CD45 and GFP (0.9% for control vs. 0.2% for CA4P treatment, p<0.05, n=5) (FIG. 12). Thirty days after xenotransplantation of GFP+HL60 cell injection, the presence of GFP+HL60 cells in the peripheral blood and the different tissues of the mice was assessed by quantification of double positive GFP and human CD45 cells by flow cytometry. […] In contrast, control mice had massive leukemic infiltrates in the spleen (5.2%), liver (2.6%) and lung (3.5%) (FIG. 12).

Data set [7] can be described thus: Bone marrow toxicity, serial complete blood counts. The class given is in vivo, CD1 mice. The note with it: 25 mg/kg subcutaneously every other day for 4 weeks. How it is done: Eight week-old sex matched CD1 mice (Jackson Laboratory, Bar Harbor, Me.) were treated with CA4P at 25 mg/kg subcutaneously every other day for 4 weeks.
[8] abbreviates: day 30, 25 mg/kg every other day.

The values below come from US20090264382A1, “Methods for Treating Hematopoietic Neoplasms” (priority 2007, published 2009).

In the case of `COc1ccc(/C=C\c2cc(OC)c(OC)c(OC)c2)cc1OP(=O)(O)O` [CA4P, combretastatin A-4 phosphate], the “attachment of HL60 and U937 AML cells to HUVECs” value in data set [1] (in vitro) is on record as “decreased attachment”. Besides, in [1] (non-adherent vs adherent to IL-1β activated HUVECs, 48 hours), the “sensitivity of leukemic cells to CA4P with decreased adhesion to HUVECs” value is “more sensitive”. The “CD34+ cell viability (Annexin/PI staining)” value in [2] (48 h with SCF 50 ng/ml) is “only minimal effect on cell viability”. Besides, the “colony-forming potential of CD34+ cells” value in [2] (methylcellulose, 14 days) was “did not impair colony-forming potential”. For the same compound, the cell cycle effect entry in the data set with KG1a leukemic cells [3] is “G2/M arrest”. In the data set with leukemic cells [4], the “number of leukemic cells displaying a comet tail” value is on record as “strongly increased”. Further, the “mitochondrial membrane protein release” value in the data set with leukemic cells [5] was “release of cytochrome c and ARTS from mitochondria”. The “release of nuclear HMG1 protein into the supernatant” value with KG1a leukemic cells [6] was “not”. The “apoptosis of HUVECs” value in the data set with VCAM-1 was “without inducing apoptosis”. Also, in the data set with VCAM-1 (24 hours, IL-1β 5 ng/ml), the “VCAM-1 expression on IL-1β-activated HUVECs” value is “significantly reduced expression of VCAM-1”. Further, in the data set with GFP+HL60 cells (25 mg/kg every other day), the “survival of intravenously xenotransplanted mice” value is “significantly increased survival”. In the data set on GFP+HL60 cells (setting [8]), the “circulating leukemic cells (human CD45 and GFP double positive) in peripheral blood” value amounted to 0.2%; the “engraftment of leukemic cells in the bone marrow” value was “completely eradicated”; the “human CD45 and GFP positive cells in the liver” value was 0.1%; the “infiltration of GFP+HL60 cells in the lung” value is “no evidence of infiltration”. In addition, in the data set on GFP+HL60 cells (setting [8]), the “infiltration of GFP+HL60 cells in the spleen” value is “no evidence of infiltration”. The “WBC and absolute neutrophil count” value in data set [7] is reported as “slight decrease”.
